Calls of active or inactive are those of the source. No rule for the calls is given here.
Molecular target: Ubiquitin-conjugating enzyme E2 N (Homo sapiens) (UniProt P61088)
Test: NMR detection of UBE2N ligand binding – biophysical, purified protein (AID 1552)
Conditions: NMR binding to purified UBE2N

Sequence of Ubiquitin-conjugating enzyme E2 N (Homo sapiens) (P61088 whole entry, looked up): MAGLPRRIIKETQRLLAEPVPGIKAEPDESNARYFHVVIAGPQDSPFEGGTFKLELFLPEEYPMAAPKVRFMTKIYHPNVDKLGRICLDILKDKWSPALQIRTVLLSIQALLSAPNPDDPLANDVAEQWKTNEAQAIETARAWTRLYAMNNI

Row | Compound | Kd
1 | CCOC(=O)c1c(C)nc2sccn12 | > 4 mM (inactive)
2 | C=C1C2CC[C@H]3[C@]4(C)C[C@H](OC5OC(CO)C(OS(=O)(=O)O)C(OS(=O)(=O)O)C5OC(=O)CC(C)C)C[C@@H](C(=O)O)[C@H]4CC[C@]3(C2)[C@H]1O (stereo not given in full) | > 4 mM (inactive)
3 | O=C(NCC1CCNCC1)c1ccncc1 | > 4 mM (inactive)
4 | CCOC(=O)N1CCCC1c1cccnc1 (stereo not given) | > 4 mM (inactive)
5 | Cc1cc(C)n2nc(NCc3ccccc3)nc2n1 | > 4 mM (inactive)
6 | CN1C(=O)c2ccc(N3CCCC3)cc2C1=O | > 4 mM (inactive)
7 | C[n+]1cccc(C(=O)[O-])c1 | > 4 mM (inactive)
8 | O=C(c1ccccc1)N1CCNCC1 | > 4 mM (inactive)
9 | O=C(c1ccncc1)N1CCN(C(=O)c2ccco2)CC1 | > 4 mM (inactive)
10 | C[C@H]1C(=O)O[C@@H]2CCN3CC=C(COC(=O)[C@](C)(O)[C@]1(C)O)[C@H]23 | > 4 mM (inactive)
11 | CCCCCC1C(=O)CCC1CC(=O)OC (stereo not given) | > 4 mM (inactive)
12 | Nc1ncnc2c1ncn2C1C[C@H](O)[C@@H](CO)O1 (stereo not given in full) | > 4 mM (inactive)
13 | CC(=O)Nc1ccc2c(c1)n(C)c(=O)n2C | > 4 mM (inactive)
14 | CC(=O)c1ccc2c(c1)OCCO2 | > 4 mM (inactive)
15 | O=C(O)c1ccc(NCc2cccnc2)cc1 | > 4 mM (inactive)
16 | O=C1NC(=O)C(C(C[N+](=O)[O-])c2ccc(O)cc2)C(=O)N1 (stereo not given) | > 4 mM (inactive)
17 | CC(=O)O[C@@H]1CC2C(C)(C)C=CC(=O)[C@]2(C)C2CC[C@@]3(C)[C@H](c4ccoc4)OC(=O)C4OC43[C@@]21C (stereo not given in full) | > 4 mM (inactive)
18 | Cc1c(C)c2c(c(C)c1O)CCC(C)(CCCC(C)CCCC(C)CCCC(C)C)O2 (stereo not given) | > 4 mM (inactive)
19 | NC1=NC(=O)/C(=C\c2cccc(C(=O)O)c2)S1 | > 4 mM (inactive)
20 | NC(=O)C1CCN(C(=S)c2cccs2)CC1 | > 4 mM (inactive)
21 | C=CCSc1[nH]c(=O)cc(C)c1C(N)=O | > 4 mM (inactive)
22 | Cc1ccc(-n2cnnn2)c2cccnc12 | > 4 mM (inactive)
23 | O=C1N=c2ccccc2=C1c1[nH]c(=S)[nH]c1O | > 4 mM (inactive)

Row | Compound | Kd
24 | COc1ccc(-c2c(OC)c3c(OC)c4c(cc3oc2=O)OC(C)(C)C=C4)cc1 | > 4 mM (inactive)
25 | Cc1cc(C)n(S(=O)(=O)c2ccc(C)c(C)c2C)n1 | > 4 mM (inactive)
26 | C[C@@H]1C(=O)OC2[C@H](O)C34[C@@H]5OC(=O)[C@@]3(O[C@@H]3OC(=O)[C@H](O)[C@@]34[C@H](C(C)(C)C)[C@H]5O)[C@]21O (stereo not given in full) | > 4 mM (inactive)
27 | Cc1cc(=O)[nH]c(N)n1 | > 4 mM (inactive)
28 | Nc1ccc(C(=O)NCC2CCCO2)cc1 (stereo not given) | > 4 mM (inactive)
29 | c1csc(-c2nnc3ccccn23)c1 | > 4 mM (inactive)
30 | Cc1nc2cc(NC(=O)Nc3nccs3)ccc2n1C | > 4 mM (inactive)
31 | O=C(NCCO)c1ccccc1I | > 4 mM (inactive)
32 | CCc1c(C(=O)N2CCOCC2)csc1C | > 4 mM (inactive)
33 | CCOC(=O)c1ccc(F)c(F)c1 | > 4 mM (inactive)
34 | NC(=O)CSc1ccc(-c2ccco2)nn1 | > 4 mM (inactive)
35 | Cc1ccc(-c2c(C)n([O-])c(C)c(C)[n+]2=O)cc1 | > 4 mM (inactive)
36 | COc1c(CC=C(C)C)c2c(c3oc(=O)c(-c4ccc(O)cc4)c(O)c13)C=CC(C)(C)O2 | > 4 mM (inactive)
37 | Cc1ccc(S(C)(=O)=O)s1 | > 4 mM (inactive)
38 | Cc1onc(-c2ccccc2)c1C(=O)O | > 4 mM (inactive)
39 | CC(=O)Nc1ccc2c(c1)CCCC2=O | > 4 mM (inactive)
40 | CC(C)c1nnc(N)s1 | > 4 mM (inactive)
41 | COc1ccc(-c2c(C)n([O-])c(C)c(C)[n+]2=O)cc1 | > 4 mM (inactive)
42 | CC(=O)Nc1ccc(C)cc1NC(C)=O | > 4 mM (inactive)
43 | O=C1C2CC=CCC2C(=O)N1c1ccccc1 (stereo not given) | > 4 mM (inactive)
44 | COc1ccc(-c2coc3c(O)c(OC)ccc3c2=O)cc1 | > 4 mM (inactive)
45 | COc1cc2ccc(=O)oc2c(OC)c1OC | > 4 mM (inactive)
